{"source": "patent US4942171A", "about": "“The compound, 6-(1-imidazolyl methyl)-5,6,7,8-tetrahydronaphthalene-2-carboxylic acid and salts thereof having antidiabetic activity” (Daiichi Seiyaku Co., Ltd., priority 1987, dated 1990)", "key": {"[1]": {"test_system": "streptozotocin-induced diabetic spontaneous hypertensive rats", "experiment": "Efficacy in Diabetic Model: Determination of Blood Sugar Level, STZ-induced diabetic SHR", "assay_type": "in vivo, rat", "settings": "for Blood Sugar Level: Diabetic SHR (n = 7), mean ± S.E.", "procedure": "(§1) 5-Week old spontaneous hypertensive male rats (SHR), available from Nippon Charles River, were used. Streptozotocin (STZ) was dissolved in a 0.1M citrate buffer solution (pH 4.5) and injected into the tail vein of the rats at a dose level of 50 mg/kg to prepare diabetic rats. For control, rats received 1 ml/kg of the citrate buffer solution alone through administration to the tail vein. After one week from the STZ administration, blood was taken from the tail vein of the unanesthetized rats, and the blood sugar level was determined. Those rats having a blood sugar level of 300 mg/dl or higher were used as diabetic rats.\n(§2) 6-(1-Imidazolylmethyl)-5,6,7,8-tetrahydronaphthalene- 2-carboxylic acid hydrochloride hemihydrate (hereinafter referred to as Compound A) was dissolved in distilled water and administered orally to the test animals at a dose level of 1 mg/kg/day or 10 mg/kg/day for 5 consecutive months from one week after the administration of STZ or a citrate buffer solution.\n(§3) Just before the administration of Compound A, blood was sampled from the tail vein of the rats without any restriction of diet to determine the blood sugar level using a commercial glucose assay kit (Trade name: New Blood Sugar Test, produced by Boehringer Mannheim Co., Ltd., West Germany). The results are shown in Table 1, expressed as mean ±S.E."}, "[2]": {"experiment": "Acute Toxicity in Rats", "settings": "rat, in vivo", "excerpt": "Acute toxicities of Compound A in rats through oral administration or intravenous injection were as follows."}, "[3]": {"test_system": "diabetic SHR", "experiment": "Determination of Glucose Tolerance in diabetic SHR", "assay_type": "in vivo, rat", "settings": "for Blood Sugar Level (Effect on Glucose Tolerance): 3 months", "procedure": "as §1, §2\nAfter 3 months from the start of the administration of Compound A, the rats were fasted for 18 hours. Glucose was administered orally to the rats at a dose level of 2 g/kg. Blood was sampled from the tail vein of the rats just before the administration of glucose and at 1 hour and 2 hours after the administration to determine the blood sugar lever using the above method. The result was shown in Table 2, expressed as mean +S.E."}, "[4]": {"test_system": "spontaneous hypertensive male rats (SHR)", "experiment": "Efficacy in Diabetic Model: Determination of Blood Sugar Level, non-diabetic SHR", "assay_type": "in vivo, rat", "settings": "for Blood Sugar Level: SHR (n = 8), mean ± S.E.", "procedure": "as §1, §2, §3"}, "[5]": {"settings": "1 mg/kg/day p.o., 0 weeks (before administration)"}, "[6]": {"settings": "10 mg/kg/day p.o., 0 weeks (before administration)"}}, "note": "Where a name gives a salt, the structure may show the parent alone."}
{"smiles": "O=C(O)c1ccc2c(c1)CCC(Cn1ccnc1)C2", "note": "(centres unmarked) [Compound A, 6-(1-Imidazolylmethyl)-5,6,7,8-tetrahydronaphthalene-2-carboxylic acid hydrochloride hemihydrate]", "values": [{"measurement": "effect on blood sugar level of diabetic SHR", "setting": "[1]; 8 weeks after the start of administration", "value": "significantly lowered the blood sugar level"}, {"measurement": "Blood Sugar Level", "setting": "[1]; [5]", "value": 374.6, "unit": "mg/dL"}, {"measurement": "Blood Sugar Level", "setting": "[1]; 1 mg/kg/day p.o., 2 weeks, control 481.5", "value": 406.3, "unit": "mg/dL"}, {"measurement": "Blood Sugar Level", "setting": "[1]; 1 mg/kg/day p.o., 8 weeks, control 544.2", "value": 445.0, "unit": "mg/dL"}, {"measurement": "Blood Sugar Level", "setting": "[1]; [6]", "value": 361.4, "unit": "mg/dL"}, {"measurement": "Blood Sugar Level", "setting": "[1]; 10 mg/kg/day p.o., 2 weeks, control 481.5, *P < 0.05 vs control", "value": 365.2, "unit": "mg/dL"}, {"measurement": "Blood Sugar Level", "setting": "[1]; 10 mg/kg/day p.o., 8 weeks, control 544.2, **P < 0.01 vs control", "value": 277.3, "unit": "mg/dL"}, {"measurement": "effect on high blood sugar level of diabetic SHR", "setting": "[1]; from 2 weeks after the start of administration", "value": "tendency to lower the high blood sugar level"}, {"measurement": "LD50", "setting": "[2]; iv, female rats", "value": 783, "unit": "mg/kg"}, {"measurement": "LD50", "setting": "[2]; iv, male rats", "value": 807, "unit": "mg/kg"}, {"measurement": "LD50", "setting": "[2]; po, female rats", "value": 1990, "unit": "mg/kg"}, {"measurement": "LD50", "setting": "[2]; po, male rats", "value": 2440, "unit": "mg/kg"}, {"measurement": "Blood Sugar Level (Effect on Glucose Tolerance)", "setting": "[3]; 1 mg/kg/day p.o. (n = 7), 1 hour after glucose load (2 g/kg p.o.), control 329.5", "value": 255.4, "unit": "mg/dL"}, {"measurement": "Blood Sugar Level (Effect on Glucose Tolerance)", "setting": "[3]; 1 mg/kg/day p.o. (n = 7), 2 hours after glucose load (2 g/kg p.o.), control 280.8", "value": 167.3, "unit": "mg/dL"}, {"measurement": "Blood Sugar Level (Effect on Glucose Tolerance)", "setting": "[3]; 1 mg/kg/day p.o. (n = 7), just before the glucose load (2 g/kg p.o.), control 178.5", "value": 136.8, "unit": "mg/dL"}, {"measurement": "Blood Sugar Level (Effect on Glucose Tolerance)", "setting": "[3]; 10 mg/kg/day p.o. (n = 8), 1 hour after glucose load (2 g/kg p.o.), control 329.5, *P < 0.05 vs control", "value": 202.4, "unit": "mg/dL"}, {"measurement": "Blood Sugar Level (Effect on Glucose Tolerance)", "setting": "[3]; 10 mg/kg/day p.o. (n = 8), 2 hours after glucose load (2 g/kg p.o.), control 280.8", "value": 137.1, "unit": "mg/dL"}, {"measurement": "Blood Sugar Level (Effect on Glucose Tolerance)", "setting": "[3]; 10 mg/kg/day p.o. (n = 8), just before the glucose load (2 g/kg p.o.), control 178.5", "value": 105.1, "unit": "mg/dL"}, {"measurement": "glucose tolerance in the diabetic SHR", "setting": "[3]; rat, in vivo", "value": "improved the glucose tolerance"}, {"measurement": "Blood Sugar Level", "setting": "[4]; [5]", "value": 100.7, "unit": "mg/dL"}, {"measurement": "Blood Sugar Level", "setting": "[4]; 1 mg/kg/day p.o., 2 weeks", "value": 95.4, "unit": "mg/dL"}, {"measurement": "Blood Sugar Level", "setting": "[4]; 1 mg/kg/day p.o., 8 weeks", "value": 94.5, "unit": "mg/dL"}, {"measurement": "Blood Sugar Level", "setting": "[4]; [6]", "value": 108.0, "unit": "mg/dL"}, {"measurement": "Blood Sugar Level", "setting": "[4]; 10 mg/kg/day p.o., 2 weeks", "value": 90.9, "unit": "mg/dL"}, {"measurement": "Blood Sugar Level", "setting": "[4]; 10 mg/kg/day p.o., 8 weeks", "value": 93.2, "unit": "mg/dL"}, {"measurement": "effect on blood sugar level in SHR", "setting": "[4]; non-diabetic SHR", "value": "not affected"}]}
